Experimental data: patent publication US9216992B2, “Thieno[3,2-c]pyridine potassium channel inhibitors” (Xention Limited, priority 2005, dated 2015)

Assays:
human Kv1.5 = target: T1, human Kv1.5 (Homo sapiens, UniProt P22460); assay: Kv1.5 Autopatch Electrophysiology; format: cell-based; settings: 1 μM compound; CHO cells stably transfected with human Kv1.5; AutoPatch whole cell mode; room temperature; read-out: Kv 1.5% Inhibition at 1 μM
T1 construct: expressed in transfected cells; host or cells: stably transfected cells
Experimental: Kv1.5 Autopatch Electrophysiology Method
(§1) Cells stably transfected with cDNA for human Kv1.5 (in pEF6::VA-His-TOPO) were grown in Ex-cell 302 serum-free medium for CHO cells, supplemented with 10 μl/ml [100×] glutamine, 5 μg/ml blasticidin and 1% HT supplement (50×, hypoxanthine and thymidine). Compounds were tested on these cells using the AutoPatch technology in whole cell mode.
The external bathing solution contained (in mM): 150 NaCl, 10 KCl, 1 MgCl2, 3 CaCl2, 10 HEPES, pH 7.4 with NaOH. Patch pipettes were filled with an electrode solution of composition (in mM): 160 KCl, 0.5 MgCl2, 10 HEPES, 1 EGTA, pH 7.4 with KOH.
(§2) Compounds were dissolved in DMSO (100%) and made up in the external bather at a concentration of 1 μM. All experiments were conducted at room temperature (22-24° C.).
(§3) A cell suspension (10 ml), with a density of 100,000 cells/ml, was aliquoted into a 15 ml centrifuge tube and transferred to an incubator (37° C., 5% CO2) for approximately one hour before use. Following 60 min incubation, a tube was taken and centrifuged at 1000 rpm for 4 mins at room temperature. 9.5 ml supernatant was thence discarded, leaving a cell pellet at the bottom of the tube. The pellet was then resuspended using 100 μl of cold (4° C.), filtered (0.22 μm), 0.2% BSA/bather solution (0.02 g BSA/10 ml bather). The bottom of the tube was manually agitated gently until the solution became cloudy with cells. The 100 μl cell resuspension solution was then stored on the bench at 4° C. (using a Peltier-based temperature control device) until used.
(§4) A length of capillary glass (1B150F-4, WPI) was dipped into the cell suspension solution, such that ˜3 cm column of fluid was taken up by capillary action. A Ag/AgCl wire was dropped into the non-dipped end of the capillary also. The outside of the solution-filled end of the capillary was then dried and the capillary was loaded into the AutoPatch™. Borosilicate glass patch pipettes (from 1.5 mm OD, thin-walled filamented, GC150-TF capillary glass, Harvard) were pulled using a DMZ pipette puller (Zeitz Instruments), and were back-filled using the internal pipette solution, being careful that no bubbles remain at the tip or in the body of the pipette. Patch pipettes typically had resistances of 2.3-3.5 MΩ. Once filled, the pipette tip and a proportion of the shaft (˜15 mm) were dipped into Sigmacote (Sigma). The recording pipette was then loaded into the AutoPatch™. Automated patch-clamping was initiated by the operator, but thereafter AutoPatch.exe continued the experiment providing that pre-set conditions and criteria were satisfied.
(§5) Whole cell patch-clamp recordings were made using the AutoPatch™ rig, which incorporated an EPC9 or EPC10 amplifier (HEKA, Germany) under control of Pulse software (v8.54 or v8.76, HEKA, Germany), a motion controller with 2 translators (Newport, UK), valve controller (VF1) and a c-level suction device all at room temperature (22-24° C.). This equipment was completely under the control of AutoPatch.exe and operator intervention was only made when there was a requirement to refill the drug reservoirs or to prevent the loss of a cell due to a technical error. Cells with an Rseries greater than 18 MΩ were discounted from the experiment.
(§6) Qualification stages prior to perfusion and drug application ensured that the observed current met the criteria for the experiment. Only those cells with an IK>500 pA were used for experiments. Cells were continuously perfused with external solution at a flow rate of 1.8-2 ml/minute. […] Online analysis of the hKv1.5 current during the application of compounds was performed by the AutoPatch™ software. Voltage-step protocols and analysis of data was performed as described for conventional electrophysiology.
(§7) Electrophysiology voltage-step protocols and analysis of data was performed as follows. Data was sampled at 5 kHz, and filtered with a −3 dB bandwidth of 2.5 kHz. Cells were held at a voltage of −80 mV. […]

human Kv1.3 = target: T2, human Kv1.3 (Homo sapiens, UniProt P22001); assay: Kv1.3 Autopatch Electrophysiology; format: cell-based; settings: 1 μM compound; CHO cells stably transfected with human Kv1.3; AutoPatch whole cell mode; room temperature; read-out: Kv 1.3% Inhibition at 1 μM
T2 construct: expressed in transfected cells; host or cells: stably transfected cells
Experimental: Kv1.3 Autopatch Electrophysiology Method
as §1, with “human Kv1.3” for “human Kv1.5”, “(in pcDNA3.1)” for “(in pEF6::VA-His-TOPO)”, “glutamine, 500” for “glutamine, 5”, “μg/ml G418 ([…]),” for “μg/ml blasticidin”
The external bathing solution contained (in mM): 150 NaCl, 10 KCl, 1 MgCl2, 3 CaCl2, 10 HEPES, pH 7.4 with NaOH. Patch pipettes were filled with an electrode solution of composition (in mM): 100 K-Gluconate, 20 KCl, 1 MgCl2, 1 CaCl2, 10 HEPES, 11 EGTA, 5 ATP—Na2, 2 Glutathione pH 7.2 with KOH.
as §2, §3, §4, §5
as §6, with “IK>400” for “IK>500”, “hKv1.3” for “hKv1.5”
as §7

T2 sequence (P22001 whole entry): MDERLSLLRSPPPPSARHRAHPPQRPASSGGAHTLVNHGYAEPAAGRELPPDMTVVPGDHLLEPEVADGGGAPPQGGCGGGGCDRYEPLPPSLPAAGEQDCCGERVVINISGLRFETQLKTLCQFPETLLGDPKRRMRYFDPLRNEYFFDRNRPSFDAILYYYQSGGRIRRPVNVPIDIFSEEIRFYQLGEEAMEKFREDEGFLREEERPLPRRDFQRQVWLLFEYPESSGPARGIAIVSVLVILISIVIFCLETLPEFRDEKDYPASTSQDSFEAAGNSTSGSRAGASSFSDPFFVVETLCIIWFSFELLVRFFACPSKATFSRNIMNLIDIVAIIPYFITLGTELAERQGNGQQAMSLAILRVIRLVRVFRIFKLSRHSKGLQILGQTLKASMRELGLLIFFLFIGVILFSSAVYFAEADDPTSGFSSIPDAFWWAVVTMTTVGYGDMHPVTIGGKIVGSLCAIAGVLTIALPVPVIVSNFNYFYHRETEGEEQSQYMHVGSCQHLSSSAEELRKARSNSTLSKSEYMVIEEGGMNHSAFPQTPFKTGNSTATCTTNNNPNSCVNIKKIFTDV
T1 sequence (P22460 whole entry): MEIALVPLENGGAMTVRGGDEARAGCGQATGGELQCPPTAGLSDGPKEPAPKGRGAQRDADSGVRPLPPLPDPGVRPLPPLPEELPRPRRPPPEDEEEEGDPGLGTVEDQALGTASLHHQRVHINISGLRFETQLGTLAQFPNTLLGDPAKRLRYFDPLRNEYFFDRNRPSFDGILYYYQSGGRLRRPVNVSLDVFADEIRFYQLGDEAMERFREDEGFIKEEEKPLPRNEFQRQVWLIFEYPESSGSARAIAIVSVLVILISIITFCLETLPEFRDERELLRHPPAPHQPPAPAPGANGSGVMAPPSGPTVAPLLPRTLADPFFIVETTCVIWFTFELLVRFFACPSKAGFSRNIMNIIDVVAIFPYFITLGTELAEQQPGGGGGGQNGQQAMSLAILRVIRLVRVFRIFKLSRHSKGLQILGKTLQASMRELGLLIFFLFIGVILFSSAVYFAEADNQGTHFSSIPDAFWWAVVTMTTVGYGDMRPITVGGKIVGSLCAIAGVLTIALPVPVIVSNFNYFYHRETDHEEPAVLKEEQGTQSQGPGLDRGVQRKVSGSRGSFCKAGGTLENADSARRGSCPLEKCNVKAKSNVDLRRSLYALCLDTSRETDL

inhibition at 1 µM (human Kv1.5)	inhibition at 1 µM (human Kv1.3)	SMILES
90%	50.1%	Cc1ccc(-c2csc3c(-c4cccnc4)cnc(NCc4ccccc4)c23)cc1 [Example 39, Benzyl-(7-pyridin-3-yl-3-p-tolyl-thieno[3,2-c]pyridin-4-yl)-amine]
36.3%	49.9%	Cc1ccc(-c2csc3c(-c4ccncc4)cnc(NCc4ccccc4)c23)cc1 [Example 40, Benzyl-(7-pyridin-4-yl-3-p-tolyl-thieno[3,2-c]pyridin-4-yl)-amine]
39.8%	26.3%	Cc1ccc(-c2csc3c(-c4cccc(S(C)(=O)=O)c4)cnc(NCc4ccccc4)c23)cc1 [Example 41, Benzyl-[7-(3-methanesulfonyl-phenyl)-3-p-tolyl-thieno[3,2-c]pyridin-4-yl]-amine]
50.8%	23.7%	Cc1cc2scc(-c3ccccc3)c2c(NCc2ccccc2)n1 [Example 50, Benzyl-(6-methyl-3-phenyl-thieno[3,2-c]pyridin-4-yl)-amine]

Continued, compound first:

SMILES	inhibition at 1 µM (human Kv1.5)	inhibition at 1 µM (human Kv1.3)
Cc1ccc(-c2csc3c(-c4ccc(N(C)C)cc4)cnc(NCc4ccccc4)c23)cc1 [Example 42, Benzyl-[7-(4-dimethylamino-phenyl)-3-p-tolyl-thieno[3,2-c]pyridin-4-yl]-amine]	14.5%	24.1%
Cc1ccc(-c2csc3c(-c4ccccc4F)cnc(NCc4ccccc4)c23)cc1 [Example 43, Benzyl-[7-(2-fluoro-phenyl)-3-p-tolyl-thieno[3,2-c]pyridin-4-yl]-amine]	26.3%	13.6%
Cc1ccc(-c2csc3c(-c4cccc(F)c4)cnc(NCc4ccccc4)c23)cc1 [Example 44, Benzyl-[7-(3-fluoro-phenyl)-3-p-tolyl-thieno[3,2-c]pyridin-4-yl]-amine]	18.8%	29.6%
Cc1ccc(-c2csc3c(-c4ccc(F)cc4)cnc(NCc4ccccc4)c23)cc1 [Example 45, Benzyl-[7-(4-fluoro-phenyl)-3-p-tolyl-thieno[3,2-c]pyridin-4-yl]-amine]	24.7%	34%
